Reference: US20080261895A1 (Wyeth, priority 2006, published 2008)
Values joined by “and” are separate entries in the source; they are usually repeats but may differ in a detail not shown here. Equal values may be shown once.

Legend:
[1] = Fecal excretion and metabolite profile by radiochromatography, rats; type: in vivo, Sprague Dawley rats; settings: for % of the radioactive dose excreted in feces: rats
Method: Urine and feces were collected separately on dry ice from three animals per sex. Collections were from 0-8 and 8-24 hours for male rats and 0-8 hours for female rats. Fecal samples were homogenized in approximately five volumes (v/w) of water. Aliquots of approximately 0.4 grams of the homogenate were placed into combusto-cones, weighed and allowed to air dry. These samples were then oxidized. The remaining urine samples and fecal homogenates were stored at −70° C. until metabolite analysis.
Fecal homogenates collected from male rats between 8 and 24 hours post-dose were analyzed for metabolite profiles. Aliquots of approximately 1 gram of fecal homogenate were centrifuged at 3500 rpm and 4° C. in a Sorvall Super 21 centrifuge for 10 minutes. The supernatant was transferred to a clean tube. The residue was re-suspended with 1 mL of water:acetonitrile (1:1, v:v) and centrifuged as described above. The resulting supernatant was combined with the original supernatant and the residue re-suspended with 1 mL of acetonitrile. The suspension was centrifuged as described above, and the supernatants were combined and analyzed for radioactivity. The supernatants were then concentrated under a stream of nitrogen in a Turbo Vap to remove the acetonitrile. An aliquot of the aqueous residue was analyzed by HPLC for profiling. Selected samples were also analyzed by LC/MS to characterize the radioactive peaks.
Chromatographic analyses were performed with a Waters Alliance model 2690 HPLC system (Waters Corp., Milford, Mass.). It was equipped with a built-in autosampler and was in-line with a model 2487 tunable UV detector, set to monitor 225 nm, and a FloOne β Model 525 radioactivity flow detector (Perkin Elmer) with a 250 μL LQTR flow cell. The flow rate of Ultima Flow M scintillation fluid was 1 mL/min, providing a mixing ratio of scintillation cocktail to mobile phase of 5:1. Separation of the metabolite peaks was accomplished on a Phenomenex Luna C18(2) column, 150×2.0 mm, 5 micron (Phenomenex, Torrance, Calif.), using a linear gradient of two mobile phases, A and B. Mobile phase A was 10 mM ammonium acetate, pH 6.0, and mobile phase B was acetonitrile. The flow rate was 0.2 mL/min.

[2] = Stability of [14C]DVS in control rat plasma; type: in vitro ADME; settings: 37° C.
Method: (§1) The stability of [^14C]DVS in rat plasma was determined. [^14C]DVS (0.01 mg/mL, final concentration) was added to control rat plasma and incubated in a shaking water bath set to 37° C. Aliquots (0.5 mL) were removed at 0, 1, 4, 8 and 24 hours. Samples were extracted as described above and radiopurity assayed by HPLC analysis.

[3] = Stability of [14C]DVS in control rat urine; type: in vitro ADME; settings: 37° C.
Method: as §1, with “urine” for “plasma”, “(0.13” for “(0.01”

[4] = Stability of [14C]DVS in control dog plasma; type: in vitro ADME; settings: 37° C., up to 24 hours
Method: as §1, with “in dog” for “in rat”, “[^14C]DVS (0.012” for “[^14C]DVS (0.01”, “control dog” for “control rat”, “C. Duplicate aliquots (1” for “C. Aliquots (0.5”, “4, 8,” for “4, 8”

Radioactivity as % of Dose in feces, Mean ± S.D. ([1]; male rats, feces 8-24 hours post-dose, single oral 20 mg/kg): 9.6 ± 1.1%
Compounds Detected by Radiochromatography in feces, percent of total peaks, individual rats ([1]; male rats, feces 8-24 hours post-dose, single oral 20 mg/kg, 20 mg/kg): 19.6% and 20.8% and 22.0%
Radioactivity as % of Dose in feces, individual rats ([1]; male rats, feces 8-24 hours post-dose, single oral 20 mg/kg, listed as [^14C]DVS, 20 mg/kg): 10.8% and 9.5% and 8.5^b %
% of the radioactive dose excreted in feces ([1]; 0-8 hour fecal samples): Less than 0.1%
% of the radioactive dose excreted in feces ([1]; within 24 hours of dosing): approximately 10%
radiopurity of [14C]DVS in rat plasma ([2]; all time points up to 24 hours): greater than 98.9%
Stability of [14C]DVS in control rat plasma ([2]; up to 24 hours): stable
radiopurity of [14C]DVS in rat urine ([3]; all time points up to 24 hours): greater than 99.5%
Stability of [14C]DVS in control rat urine ([3]; up to 24 hours): stable
Stability of [14C]DVS in control dog plasma [4]: stable
Structure (SMILES): CN(C)CC(c1ccc(O)cc1)C1(O)CCCCC1.O=C(O)CCC(=O)O (stereo not shown) [DVS, O-desmethylvenlafaxine succinate]
